The text below walks through data of US9738600B2, “ROR gamma (RORγ) modulators” (LEAD PHARMA CEL MODELS IP B.V., priority 2013, dated 2017).

Bounds are passed on as bounds.

For one experiment, the system named is IL-17A production in anti-CD3/anti-CD28 stimulated peripheral blood mononuclear cells (PBMCs). In words: Peripheral blood mononuclear cell (PBMC) IL-17 assay. It is filed as cell-based. Particulars: Homo sapiens, 120 h, inhibition of IL-17A production, 5 days, IL-17 ELISA, read-out: mean pIC50 (converted). The protocol: The assay procedure and results are described below.
This assay is designed to measure the levels of IL-17A secreted from anti-CD3/anti-CD28 stimulated PBMCs with the aim of measuring RORγ mediated inhibition of IL-17A production.
The assay medium consists of 90% RPMI 1640 (Lonza), 10% heat inactivated fetal bovin serum (FBS, Lonza) and 100 U/mL penicillin/streptomycin solution.
Anti-CD3 antibody (BD Pharmingen) was diluted to 10 μg/ml in PBS (Lonza). 30 μL of 10 μg/ml anti-CD3 solution was added to the inner 60 wells, excluding any negative control wells, of a 96-well cell culture treated U-bottom plate (Greiner). Plates were incubated overnight (16-24 hours) at 37° C. and 5% CO2.
Peripheral blood mononuclear cells were separated from buffy coats (Sanquin) using Ficoll-Paque PREMIUM separation medium (GE Healthcare Life Sciences) according to manufacturer's protocol and re-suspended in assay medium at 37° C.
Test compounds were diluted, starting from a 10 mM dimethylsulfoxide (DMSO) stock solution, to serial dilutions in DMSO at 200× the final test concentration. Subsequently, these solutions were diluted in two dilution steps in assay medium to 10× the final test concentration. The DMSO concentration of the 10× test compound solution was 5%.
Anti-CD28 antibody (BD Pharmingen) was diluted to 20 μg/mL in PBS. The PBMCs were diluted to a concentration of 2.5×10^6 cells/mL in assay medium at 37° C.
For compound screening, the anti-CD3 coated plates were washed three times with PBS, the wells were subsequently aspirated using vacuum. To each screening well 80 μL of the PBMC suspension, 10 μL of the anti-CD28 solution and 10 μL of the 10× test compound solution was added, resulting in the final test concentration with 0.5% DMSO. All outer wells were filled with assay medium to prevent evaporation. Plates were incubated for 5 days at 37° C. and 5% CO2.
After incubation the plates were spun down at 1500 rpm for 4 minutes and the supernatant was collected. Subsequently, the IL-17A levels in the supernatants was determined using an IL-17 ELISA kit (human IL-17 DuoSet, R&D systems) according to manufacturer's protocol.
The half maximum inhibitory concentration (IC50) values for the test compounds were calculated from the IL-17A signal using GraphPad Prism software (GraphPad Software).
`CCS(=O)(=O)c1ccc(CC(=O)Nc2ccc(C(O)(C(F)(F)F)C(F)(F)F)cc2)cc1` [Example 2, 2-(4-(ethylsulfonyl)phenyl)-N-(4-(1,1,1,3,3,3-hexafluoro-2-hydroxypropan-2-yl)phenyl)acetamide]: the IC50 was not above 1000 nM.

For `O=C(Cc1ccc(S(=O)(=O)NC2CC2)cc1)Nc1ccc(C(O)(C(F)(F)F)C(F)(F)F)c(F)c1` [Example 33, 2-(4-(N-cyclopropylsulfamoyl)phenyl)-N-(3-fluoro-4-(1,1,1,3,3,3-hexafluoro-2-hydroxypropan-2-yl)phenyl)acetamide], the IC50 was not above 1000 nM.

Regarding `O=C(Cc1ccc(S(=O)(=O)NC2CC2)cc1)Nc1ccc(C(O)(C(F)(F)F)C(F)(F)F)cc1F` [Example 35, 2-(4-(N-cyclopropylsulfamoyl)phenyl)-N-(2-fluoro-4-(1,1,1,3,3,3-hexafluoro-2-hydroxypropan-2-yl)phenyl)acetamide], the IC50 was not above 1000 nM.

The next experiment deals with T1, RORγ (Homo sapiens, UniProt P51449).
T1 sequence (P51449 269-508 limits assumed): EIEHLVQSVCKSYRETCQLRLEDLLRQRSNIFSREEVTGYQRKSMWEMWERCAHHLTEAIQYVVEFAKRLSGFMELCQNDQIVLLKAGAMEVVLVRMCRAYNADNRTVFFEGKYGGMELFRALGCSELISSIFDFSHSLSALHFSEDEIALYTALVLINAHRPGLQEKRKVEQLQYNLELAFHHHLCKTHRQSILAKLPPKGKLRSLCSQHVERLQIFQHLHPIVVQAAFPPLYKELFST
As to the kind of experiment: RORγ GAL4 reporter gene assay. Conditions: mean pIC50, inhibition of RORγ (GAL4-RORγ-LBD) in 293FT cells, luciferase readout, overnight incubation. For orientation: A reporter such as luciferase makes a cellular process visible.
Description: The RORγ ligand-binding domain (LBD) was fused to the yeast GAL4 DNA binding domain (DBD) and placed under the control of the human cytomegalovirus (CMV) immediate early promoter, using expression vector pFN26A (Promega) and standard recombinant DNA cloning methods.
To monitor the inhibitory effect of compounds on RORγ, a transcriptional reporter construct was used. The pGL4.35 vector (Promega) contains nine copies of the GAL4 Upstream Activator Sequence (UAS). This sequence drives the transcription of the luciferase reporter gene luc2P in response to binding of a fusion protein containing the GAL4 DNA binding domain, as for example expressed by the GAL4-RORγ-LBD and GAL4-VP16 expression vectors described above.
The day after transfection, cells were plated into 96 well plates, test compound was added and the plates were incubated overnight. Subsequently, the firefly luciferase activity was quantified using luciferase detection reagent and luminescence readout.
1500 μL of this reagent mixture was added to 5 μg of GAL4 fusion protein expression vector and 5 μg of the transcriptional reporter construct, and incubated at RT for 20 minutes.
Subsequently, the cells were washed with Phosphate Buffered Saline (PBS) (Lonza), after which the PBS was removed. To dissociate the cells, 1 ml of TrypLE Express (Invitrogen) was added to the flask, followed by incubation at RT until the cells visually started to detach. Cells were collected in 5 mL of assay medium (DMEM culture medium (Lonza), 10% dialyzed FBS (Invitrogen) and Pen/Strep (Lonza)) to achieve a single cell suspension. 10×10^6 cells were spun down and re-suspended in 10 mL of assay medium. Subsequently, the cell suspension was added to the transfection mix tube, and then transferred as a whole to a T75 flask (Greiner), followed by overnight (16-24 hours) incubation at 37° C. and 5% CO2.
For compound screening, the cells were harvested (as described above) and counted. […] 80 μL of cell suspension (60,000 cells) was plated per well into a white, flat bottom, tissue culture treated, 96 well screening plates (Greiner).
Test compounds were diluted, starting from a 10 mM dimethylsulfoxide (DMSO) stock solution, to serial dilutions in DMSO at 500× the final test concentration. Subsequently, these solutions were diluted to 5× the final test concentration in two 10-fold-dilution steps in assay medium. The final DMSO concentration of the 5× test compound solution was 1%. 20 μL of the 5× test compound solution was added to each test well of the 96 well plate previously plated with 80 μl cell suspension, resulting in the final test concentration with 0.2% DMSO.
The plates were incubated overnight (16-24 hours) at 37° C. and 5% CO2.
For the luciferase readout, the luciferase reagent (Britelite Plus, Perkin Elmer) was brought to RT. […] The luciferase luminescence signal was measured using a Wallac Victor Microplate Reader (Perkin Elmer).
The half maximum inhibitory concentration (IC50) values for the test compounds were calculated from the luciferase signal using GraphPad Prism software (GraphPad Software).
For the compound `O=C(Cc1ccc(S(=O)(=O)NC2CC2)cc1)Nc1ccc(C(O)(C(F)(F)F)C(F)(F)F)c(F)c1` [Example 33, 2-(4-(N-cyclopropylsulfamoyl)phenyl)-N-(3-fluoro-4-(1,1,1,3,3,3-hexafluoro-2-hydroxypropan-2-yl)phenyl)acetamide], the IC50 was not above 100 nM.

`O=C(Cc1ccc(S(=O)(=O)NC2CC2)cc1)Nc1ccc(C(O)(C(F)(F)F)C(F)(F)F)cc1F` [Example 35, 2-(4-(N-cyclopropylsulfamoyl)phenyl)-N-(2-fluoro-4-(1,1,1,3,3,3-hexafluoro-2-hydroxypropan-2-yl)phenyl)acetamide] had an IC50 not above 100 nM.

Regarding `CCS(=O)(=O)c1ccc(CC(=O)Nc2ccc(C(O)(CC3CCCC3)C(F)(F)F)cc2)cc1` (centres unmarked) [Example 86, N-(4-(3-cyclopentyl-1,1,1-trifluoro-2-hydroxypropan-2-yl)phenyl)-2-(4-(ethylsulfonyl)phenyl)acetamide], the IC50 was not above 1000 nM.

For the compound `O=C(Cc1ccc(S(=O)(=O)CC2CC2)cc1)Nc1ccc(C(O)(Cc2ccccc2)C(F)(F)F)cc1` (centres unmarked) [Example 87, 2-(4-cyclopropylmethanesulfonylphenyl)-N-[4-(1,1,1-trifluoro-2-hydroxy-3-phenylpropan-2-yl)phenyl]acetamide], the IC50 was not above 100 nM.

Regarding `O=C(Cc1ccc(S(=O)(=O)CC2CC2)cc1)Nc1ccc(C(O)(c2ccccc2)C(F)(F)F)cc1` (centres unmarked) [Example 88, 2-(4-((cyclopropylmethyl)sulfonyl)phenyl)-N-(4-(2,2,2-trifluoro-1-hydroxy-1-phenylethyl)phenyl)acetamide], the IC50 was not above 100 nM.

`O=C(Cc1ccc(S(=O)(=O)NC2CC2)cc1)Nc1ccc(C(O)(C(F)(F)F)C(F)(F)F)c(Cl)c1` [Example 89, N-(3-chloro-4-(1,1,1,3,3,3-hexafluoro-2-hydroxypropan-2-yl)phenyl)-2-(4-(N-cyclopropylsulfamoyl)phenyl)acetamide] displayed an IC50 not above 1000 nM.

In turn, `O=C(Cc1ccc(S(=O)(=O)NC2CC2)cc1)Nc1ccc(C(O)(C2CCCC2)C(F)(F)F)cc1` (centres unmarked) [Example 90, N-(4-(1-cyclopentyl-2,2,2-trifluoro-1-hydroxyethyl)phenyl)-2-(4-(N-cyclopropylsulfamoyl)phenyl)acetamide] returned an IC50 not above 1000 nM.

The compound `Cc1cc(S(=O)(=O)CC2CC2)ccc1CC(=O)Nc1ccc(C(O)(C(F)(F)F)C(F)(F)F)cc1` [Example 93, 2-(4-((cyclopropylmethyl)sulfonyl)-2-methylphenyl)-N-(4-(1,1,1,3,3,3-hexafluoro-2-hydroxypropan-2-yl)phenyl)acetamide] registered an IC50 not above 100 nM.

The compound `CC(C)(C)CC(O)(c1ccc(NC(=O)Cc2ccc(S(=O)(=O)NC3CC3)cc2)cc1)C(F)(F)F` (centres unmarked) [Example 94, 2-(4-(N-cyclopropylsulfamoyl)phenyl)-N-(4-(1,1,1-trifluoro-2-hydroxy-4,4-dimethylpentan-2-yl)phenyl)acetamide] returned an IC50 not above 100 nM.

Compound `CC(C)C(O)(c1ccc(NC(=O)Cc2ccc(S(=O)(=O)NC3CC3)cc2)cc1)C(F)(F)F` (centres unmarked) [Example 95, 2-(4-(N-cyclopropylsulfamoyl)phenyl)-N-(4-(1,1,1-trifluoro-2-hydroxy-3-methylbutan-2-yl)phenyl)acetamide] returned an IC50 not above 1000 nM.

Turning to `CCS(=O)(=O)c1ccc(CC(=O)Nc2ccc(C(O)(CC(C)(C)C)C(F)(F)F)cc2)cc1` (centres unmarked) [Example 96, 2-(4-(ethylsulfonyl)phenyl)-N-(4-(1,1,1-trifluoro-2-hydroxy-4,4-dimethylpentan-2-yl)phenyl)acetamide], the IC50 was not above 100 nM.

`CCS(=O)(=O)c1ccc(CC(=O)Nc2ccc(C(O)(c3ccccc3)C(F)(F)F)cc2)cc1` (centres unmarked) [Example 97, 2-(4-(ethylsulfonyl)phenyl)-N-(4-(2,2,2-trifluoro-1-hydroxy-1-phenylethyl)phenyl)acetamide] registered an IC50 not above 1000 nM.

Take `O=C(Cc1ccc(S(=O)(=O)CC2CC2)cc1)Nc1ccc(C(O)(C(F)(F)F)C(F)(F)F)cc1Cl` [Example 98, N-(2-chloro-4-(1,1,1,3,3,3-hexafluoro-2-hydroxypropan-2-yl)phenyl)-2-(4-((cyclopropylmethyl)sulfonyl)phenyl)acetamide]: the IC50 was not above 100 nM.

Compound `O=C(Cc1ccc(S(=O)(=O)NC2CC2)cc1)Nc1ccc(C(O)(CC2CCCC2)C(F)(F)F)cc1` (centres unmarked) [Example 99, N-(4-(3-cyclopentyl-1,1,1-trifluoro-2-hydroxypropan-2-yl)phenyl)-2-(4-(N-cyclopropylsulfamoyl)phenyl)acetamide] registered an IC50 not above 1000 nM.

On to `O=C(Nc1ccc(C(O)(C(F)(F)F)C(F)(F)F)cc1)C(=O)c1ccc(S(=O)(=O)CC2CC2)cc1` [Example 102, 2-(4-((cyclopropylmethyl)sulfonyl)phenyl)-N-(4-(1,1,1,3,3,3-hexafluoro-2-hydroxypropan-2-yl)phenyl)-2-oxoacetamide], for which the IC50 is not above 1000 nM.

As for `CC(C)CCC(O)(c1ccc(NC(=O)Cc2ccc(S(=O)(=O)CC3CC3)cc2)cc1)C(F)(F)F` (centres unmarked) [Example 104, 2-(4-((cyclopropylmethyl)sulfonyl)phenyl)-N-(4-(1,1,1-trifluoro-2-hydroxy-5-methylhexan-2-yl)phenyl)acetamide], the IC50 is not above 100 nM.

`O=C(Cc1ccc(S(=O)(=O)CC2CC2)cc1)Nc1ccc(C(O)(C2CC2)C2CC2)cc1` [Example 106, 2-(4-((cyclopropylmethyl)sulfonyl)phenyl)-N-(4-(dicyclopropyl(hydroxy)methyl)phenyl)acetamide] yielded an IC50 not above 100 nM.

For `CC(C)CCCC(O)(c1ccc(NC(=O)Cc2ccc(S(=O)(=O)CC3CC3)cc2)cc1)C(F)(F)F` (centres unmarked) [Example 108, 2-(4-((cyclopropylmethyl)sulfonyl)phenyl)-N-(4-(1,1,1-trifluoro-2-hydroxy-6-methylheptan-2-yl)phenyl)acetamide], the IC50 was not above 100 nM.

As to `CC(C(=O)Nc1ccc(C(O)(C(F)(F)F)C(F)(F)F)cc1)c1ccc(S(=O)(=O)CC2CC2)cc1` (centres unmarked) [Example 109, 2-(4-((cyclopropylmethyl)sulfonyl)phenyl)-N-(4-(1,1,1,3,3,3-hexafluoro-2-hydroxypropan-2-yl)phenyl)propanamide], the IC50 is not above 100 nM.

For `O=C(Cc1ccc(S(=O)(=O)CC2CC2)cc1)Nc1ccc(C(O)(C(F)(F)F)C(F)(F)F)nc1` [Example 110, 2-(4-((cyclopropylmethyl)sulfonyl)phenyl)-N-(6-(1,1,1,3,3,3-hexafluoro-2-hydroxypropan-2-yl)pyridin-3-yl)acetamide], the IC50 was not above 1000 nM.

Regarding `CCS(=O)(=O)c1ccc(CC(=O)Nc2ccc(C(OCC(F)(F)F)(C(F)(F)F)C(F)(F)F)cc2)cc1` [Example 112, 2-(4-(ethylsulfonyl)phenyl)-N-(4-(1,1,1,3,3,3-hexafluoro-2-(2,2,2-trifluoroethoxy)propan-2-yl)phenyl)acetamide], the IC50 is not above 1000 nM.

As to `O=C(Cc1ccc(S(=O)(=O)CC2CC2)cc1)Nc1ccc(C(OCC(F)(F)F)(C(F)(F)F)C(F)(F)F)cc1` [Example 113, 2-(4-((cyclopropylmethyl)sulfonyl)phenyl)-N-(4-(1,1,1,3,3,3-hexafluoro-2-(2,2,2-trifluoroethoxy)propan-2-yl)phenyl)acetamide], the IC50 was not above 100 nM.

As to `O=C(Nc1ccc(C(O)(C(F)(F)F)C(F)(F)F)cc1)C(O)c1ccc(S(=O)(=O)CC2CC2)cc1` (centres unmarked) [Example 114, 2-(4-((cyclopropylmethyl)sulfonyl)phenyl)-N-(4-(1,1,1,3,3,3-hexafluoro-2-hydroxypropan-2-yl)phenyl)-2-hydroxyacetamide], the IC50 is not above 100 nM.
